The test system of data set [1] is S. cerevisiae strain AH109. Nature of the data set: Growth inhibition of S. cerevisiae strain AH109 in YPD medium (turbidity, A600).
Procedure: (§1) AH109 cells or ATCC 96901 cells were inoculated into 200.0 ml of YPD to obtain an initial OD600 reading of 0.005 on a spectrophotometer. […] The yeast suspensions were placed on a shaking incubator set at 200 rpm and 30° C. for 18-24 hr (S. cerevisiae) or 10-12 hr (C. albicans), and then the extent of fungal growth was assessed by measuring the sample absorbance at 600 nm (A600 nm) on a spectrophotometer. The effect of each concentration of antifungal agent was tested in triplicate.
The test system of data set [2] is C. albicans strain ATCC 96901. The experiment in a line: Growth inhibition of fluconazole-resistant C. albicans strain ATCC 96901 in YPD medium (turbidity, A600).
Procedure: as §1
For data set [3], the system named is C. albicans strain S2. Nature of the data set: Broth microdilution susceptibility testing (MIC), C. albicans strain S2. The settings on record: fluconazole-resistant C. albicans strain S2, RPMI medium pH 7.0, 48 hr, 30° C.; MIC = lowest concentration with 100% growth inhibition.
Procedure: (§2) Broth Microdilution Susceptibility Testing of C. albicans:
(§3) Note that all susceptibility assays were performed in triplicate wells using sterile flat-bottom 24-well microtiter plates.
Data set [4] has as its system A-431 human skin cells.
Procedure: Cells were then incubated for 48 hr at 37° C. After incubation, the MTT viability assay was performed. This assay measures the conversion of 3-[4,5-dimethylthiazol-2-yl]-2,5-diphenyl tetrazolium bromide (MTT) into a colored product in living cells.
The MTT assay was used to determine cell viability and the LC50 value for each compound was evaluated.
Data set [5] concerns C. albicans strain ATCC 96901. Nature of the data set: Broth microdilution susceptibility testing (MIC), C. albicans strain ATCC 96901. The settings on record: fluconazole-resistant C. albicans strain ATCC 96901, RPMI medium pH 7.0, 48 hr, 30° C.; MIC = lowest concentration with 100% growth inhibition.
Procedure: as §2, §3
Setting [6] is: Saccharomyces cerevisiae, AH109, AH109, read-out: IC50, concentration of drug required to inhibit the growth of yeast cells by 50%.
Where [7] appears, read: Candida albicans, ATCC96901, read-out: IC50, concentration of drug required to inhibit the growth of yeast cells by 50%.

Like-named read-outs stand apart in the source and are kept apart here.

For `C[C@@H]1[C@H](O)[C@@H](C)/C=C/C=C/C=C/C=C/C=C/C=C/C=C/[C@H](O[C@@H]2O[C@H](C)[C@@H](O)[C@H](N)[C@@H]2O)C[C@@H]2O[C@](O)(C[C@@H](O)C[C@@H](O)[C@H](O)CC[C@@H](O)C[C@@H](O)CC(=O)O[C@H]1C)C[C@H](O)[C@H]2C(=O)O` [amphotericin B], the IC50 in data set [1] (read-out: IC50, concentration of drug required to inhibit the growth of yeast cells by 50%, S. cerevisiae AH109, YPD medium, 18-24 hr, 30° C.) was 0.03 µM; in data set [2] (read-out: IC50, concentration of drug required to inhibit the growth of yeast cells by 50%, fluconazole-resistant C. albicans ATCC 96901, YPD medium, 10-12 hr, 30° C.) it was 0.23 µM.

Consider `O=C1c2ccccc2[Se](=O)N1c1ccccc1` (stereo not drawn) [ebselen se-oxide, 2-phenyl-1,2-benzisoselenazol-3(2H)-one 1-oxide], for which the “MIC compared with fluconazole” value in data set [3] was “lower MIC values, than fluconazole”; in data set [5] it was “lower MIC values, than fluconazole”. Further, the “Toxicity to A-431 human skin cells (MTT viability, LC50 evaluated)” value in data set [4] is given as “neither compound was toxic”. Moreover, the IC50 in data set [1] (setting [6]) stood at 2.1 µM; in data set [2] (setting [7]) it was 4.5 µM.

Turning to `O=c1c2ccccc2[se]n1-c1ccccc1` [ebselen, 2-phenyl-1,2-benzisoselenazol-3(2H)-one], the “MIC compared with fluconazole” value in data set [3] is recorded as “lower MIC values, than fluconazole”; in data set [5], “lower MIC values, than fluconazole”. For the same compound, the “Toxicity to A-431 human skin cells (MTT viability, LC50 evaluated)” value in data set [4] is given as “neither compound was toxic”. The IC50 in data set [1] (setting [6]) was 4.6 µM; in data set [2] (setting [7]) it was 5.83 µM.

Consider `OC(Cn1cncn1)(Cn1cncn1)c1ccc(F)cc1F` [fluconazole], for which the IC50 in data set [1] (setting [6]) was 53 µM; in data set [2] (setting [7]), 460 µM.

Turning to `CCC(C)n1ncn(-c2ccc(N3CCN(c4ccc(OCC5COC(Cn6cncn6)(c6ccc(Cl)cc6Cl)O5)cc4)CC3)cc2)c1=O` (stereo not drawn) [itraconazole], the IC50 is 1.13 µM in data set [1] (setting [6]) and 0.48 µM in data set [2] (setting [7]).

`CC(=O)N1CCN(c2ccc(OCC3COC(Cn4ccnc4)(c4ccc(Cl)cc4Cl)O3)cc2)CC1` (stereo not drawn) [ketoconazole]: the IC50 amounted to 0.54 µM in data set [1] (setting [6]) and 0.21 µM in data set [2] (setting [7]).

The record behind these values is patent publication US8426452B2, “Process for the treatment and prevention of diseases caused by fungi” (priority 2008, dated 2013).
